Assay [1] concerns the target T1, purified recombinant human PI3K enzyme δ (Homo sapiens, UniProt O00329).
T1 construct: purchased Invitrogen, USA
As to the kind of experiment: Inhibition of PI3-Kinase enzymatic activity (HTRF enzyme assay), δ. Format: biochemical. The note with it: 1 μM compound; PI3K δ 50 ng/well; PIP2 10 μM; ATP 200 μM; read-out: Percentage inhibition of PI3K activity, δ. In outline: (§1)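 HTRF assay with compound at 1 μM (1.0% DMSO), recombinant human PI3Kδ (50 ng/well) or γ (100 ng/well) and PIP2 (10 μM), preincubated 15 min at room temperature. ATP (δ 200 μM, γ 50 μM) was then added for 30 min at room temperature. Percent inhibition was derived from the 665/615 nm signal ratio.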

In assay [2] the target is T2, purified recombinant human PI3K enzyme γ (Homo sapiens, UniProt P48736).
T2 construct: purchased Invitrogen, USA
Nature of the assay: Inhibition of PI3-Kinase enzymatic activity (HTRF enzyme assay), γ. In kind it is biochemical. The conditions noted are these: 1 μM compound; PI3K γ 100 ng/well; PIP2 10 μM; ATP 50 μM; read-out: Percentage inhibition of PI3K activity, γ. In short, it runs like this: as §1

Assay [3] concerns OVA induced pulmonary inflammatory cell accumulation in BAL fluid. Nature of the assay: Ovalbumin (OVA) model of airway inflammation (asthma) in mice. Format: in vivo. The conditions noted are these: OVA challenge. The protocol: Allergen chicken egg ovalbumin (OVA) model, which shares features similar to human allergic asthma, including the presence of eosinophilic and lymphocytic lung inflammation, is frequently used for model for asthma. Ovalbumin is an inert protein that is not intrinsically immunogenic and therefore needs to be injected systemically in the presence of an adjuvant, typically aluminum hydroxide (alum), to induce Th2-driven response in mice (Curr. Protoc. Mouse Biol. 6:169-184, 2016).
Ovalbumin (20 μg) (OVA, Sigma Aldrich, St. Louis, Mo.), emulsified with inject alum (1 mg, 0.2 mL) was administered in mice intraperitoneally (i.p.) on days 1 and 14 for sensitization, and then challenged with OVA (0.5% w/v) exposure for 30 minutess using nebulizer on days 21, 22 and 23 in Compound no 44 treated and vehicle control animals. Saline control mice received normal saline as sensitization and challenge dose in similar fashion.
Lung delivery of compound of present invention was achieved by whole body aerosol exposure using nebulizer for 25 minutes in a chamber. Mice were divided in different dose groups and exposed in a chamber for 25 minutes with vehicle or Compound no 44 (1 mg/ml or 3 mg/ml). Test compound/vehicle was administered once daily for 5 days starting from day 20 till day 24. On each challenge day treatment was administered 2 hr before OVA challenge. Bronchoalveolar lavage (BAL) was performed 48 hr post last OVA exposure (i.e. on day 25).
Trachea of animal was cannulated using catheter. Phosphate Buffer Saline (PBS) was used as lavage fluid. A volume of 0.5 ml was gently instilled and withdrawn and collected in microcentrifuge tube placed on ice. This procedure was repeated further 3 times.
Lavage fluid was separated from cells by centrifugation and supernatant separated. The cell pallet was resuspended in known volume of PBS. Cells in aliquot were stained using Turk solution and total cell numbers were calculated by counting Turk stained aliquot under microscope using haemocytometer.
The residual cell suspension was resuspended with PBS and slides prepared using cyto centrifuge technique (Cytospin 4, Thermo Shandon). The slides were then fixed with methanol, air dried and stained with May Grunwald Giemsa stain. Up to 300 cells were counted and differentiated using standard morphometric techniques under light microscopy.
All results are presented at individual data for each animal and mean value calculated for each group. Percentage inhibition for each cell type is calculated as below.
% inhibition=[(Vehicle treatment−Drug treatment)/(Vehicle treatment−Saline treatment)]*100

[4] abbreviates: 1 mg/ml nebulized 25 minutes once daily for 5 days.
The mark [5] stands for this setting: 3 mg/ml nebulized 25 minutes once daily for 5 days.

Here are results for 12 compounds from patent US20190127381A1, “SUBSTITUTED FUSED PYRIMIDINONE COMPOUNDS” (TORRENT PHARMACEUTICALS LIMITED, priority 2016, published 2019).

T1 sequence (O00329 whole entry): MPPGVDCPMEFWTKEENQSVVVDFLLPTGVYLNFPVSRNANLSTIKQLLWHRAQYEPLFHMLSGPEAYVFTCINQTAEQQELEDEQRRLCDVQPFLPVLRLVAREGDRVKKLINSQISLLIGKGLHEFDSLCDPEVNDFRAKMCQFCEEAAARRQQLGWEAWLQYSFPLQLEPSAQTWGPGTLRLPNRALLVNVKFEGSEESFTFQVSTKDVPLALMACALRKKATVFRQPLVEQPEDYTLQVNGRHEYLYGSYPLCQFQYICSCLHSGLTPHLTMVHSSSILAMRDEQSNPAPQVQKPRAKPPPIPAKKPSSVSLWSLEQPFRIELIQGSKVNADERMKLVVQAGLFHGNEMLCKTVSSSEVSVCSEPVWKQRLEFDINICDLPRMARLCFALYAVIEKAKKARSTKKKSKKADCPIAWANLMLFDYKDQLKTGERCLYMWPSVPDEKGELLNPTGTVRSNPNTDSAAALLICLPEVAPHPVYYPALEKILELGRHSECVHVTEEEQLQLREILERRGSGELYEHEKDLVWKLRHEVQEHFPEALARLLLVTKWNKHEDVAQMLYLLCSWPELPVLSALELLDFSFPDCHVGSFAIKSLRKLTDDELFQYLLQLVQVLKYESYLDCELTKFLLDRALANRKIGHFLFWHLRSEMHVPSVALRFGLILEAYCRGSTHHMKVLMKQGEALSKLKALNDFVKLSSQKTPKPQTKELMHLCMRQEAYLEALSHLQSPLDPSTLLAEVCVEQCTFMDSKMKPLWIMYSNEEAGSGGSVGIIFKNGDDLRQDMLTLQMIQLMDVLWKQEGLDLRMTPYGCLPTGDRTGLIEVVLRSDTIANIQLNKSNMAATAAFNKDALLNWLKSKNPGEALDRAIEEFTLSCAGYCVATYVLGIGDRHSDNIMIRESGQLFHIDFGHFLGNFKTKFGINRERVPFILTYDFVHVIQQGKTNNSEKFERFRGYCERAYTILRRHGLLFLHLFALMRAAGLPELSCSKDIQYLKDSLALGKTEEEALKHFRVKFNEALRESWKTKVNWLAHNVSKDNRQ
T1 sequence (P27986 whole entry partner): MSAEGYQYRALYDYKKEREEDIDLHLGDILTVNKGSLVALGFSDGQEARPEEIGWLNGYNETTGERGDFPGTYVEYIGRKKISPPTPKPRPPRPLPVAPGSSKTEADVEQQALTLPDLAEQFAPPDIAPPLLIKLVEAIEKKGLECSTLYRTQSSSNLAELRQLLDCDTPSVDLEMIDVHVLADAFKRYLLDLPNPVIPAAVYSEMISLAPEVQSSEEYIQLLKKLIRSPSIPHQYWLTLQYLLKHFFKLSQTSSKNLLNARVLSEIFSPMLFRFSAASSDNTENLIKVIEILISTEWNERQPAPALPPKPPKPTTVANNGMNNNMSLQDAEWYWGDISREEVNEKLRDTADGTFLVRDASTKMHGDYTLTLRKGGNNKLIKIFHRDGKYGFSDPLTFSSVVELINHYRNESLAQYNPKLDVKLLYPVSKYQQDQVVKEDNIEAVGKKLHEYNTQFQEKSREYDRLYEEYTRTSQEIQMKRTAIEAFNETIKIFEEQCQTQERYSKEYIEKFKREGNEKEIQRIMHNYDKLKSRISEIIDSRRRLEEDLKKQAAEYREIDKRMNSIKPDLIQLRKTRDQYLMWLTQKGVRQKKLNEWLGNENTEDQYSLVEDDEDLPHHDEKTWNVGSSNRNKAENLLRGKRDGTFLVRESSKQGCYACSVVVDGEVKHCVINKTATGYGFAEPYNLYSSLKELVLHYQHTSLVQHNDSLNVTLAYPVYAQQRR
T2 sequence (P48736 whole entry): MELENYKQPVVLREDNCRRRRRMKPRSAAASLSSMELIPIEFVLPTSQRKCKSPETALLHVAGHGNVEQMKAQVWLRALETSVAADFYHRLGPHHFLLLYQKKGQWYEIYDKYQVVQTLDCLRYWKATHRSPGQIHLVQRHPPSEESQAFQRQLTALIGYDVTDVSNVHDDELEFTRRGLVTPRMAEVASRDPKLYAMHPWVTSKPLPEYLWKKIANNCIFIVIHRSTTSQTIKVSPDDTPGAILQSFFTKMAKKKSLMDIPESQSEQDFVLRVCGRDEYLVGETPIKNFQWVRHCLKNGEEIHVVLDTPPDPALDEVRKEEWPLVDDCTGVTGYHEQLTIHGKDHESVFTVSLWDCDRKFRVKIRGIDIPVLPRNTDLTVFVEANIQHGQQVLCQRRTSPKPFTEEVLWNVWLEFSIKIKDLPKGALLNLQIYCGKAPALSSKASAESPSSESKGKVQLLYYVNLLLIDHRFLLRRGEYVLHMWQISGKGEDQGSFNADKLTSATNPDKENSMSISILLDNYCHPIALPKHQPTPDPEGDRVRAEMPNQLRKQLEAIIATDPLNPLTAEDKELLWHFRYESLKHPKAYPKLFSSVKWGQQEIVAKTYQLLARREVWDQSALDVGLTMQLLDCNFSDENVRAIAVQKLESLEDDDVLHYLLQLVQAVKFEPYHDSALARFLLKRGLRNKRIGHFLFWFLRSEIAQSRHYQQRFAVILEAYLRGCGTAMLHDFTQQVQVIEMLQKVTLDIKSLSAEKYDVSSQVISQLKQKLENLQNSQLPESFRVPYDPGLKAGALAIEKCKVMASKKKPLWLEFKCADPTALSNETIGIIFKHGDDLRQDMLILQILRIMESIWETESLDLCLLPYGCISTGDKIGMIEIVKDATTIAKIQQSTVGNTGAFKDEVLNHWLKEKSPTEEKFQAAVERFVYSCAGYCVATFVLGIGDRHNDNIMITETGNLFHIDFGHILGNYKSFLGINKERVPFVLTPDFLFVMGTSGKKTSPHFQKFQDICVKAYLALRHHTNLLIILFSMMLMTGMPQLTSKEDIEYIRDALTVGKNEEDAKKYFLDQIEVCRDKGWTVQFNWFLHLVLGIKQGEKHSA

As for `Cn1cc(-c2cccc3nc(Cn4nc(-c5ccc(O)c6c5CC(C)(C)O6)c5c(N)ncnc54)n(-n4cccc4)c(=O)c23)cn1` [Compound No. 44, 2-{[4-amino-3-(7-hydroxy-2,2-dimethyl-2,3-dihydro-1-benzofuran-4-yl)-1H-pyrazolo[3,4-d]pyrimidin-1-yl]methyl}-5-(1-methyl-1H-pyrazol-4-yl)-3-(1H-pyrrol-1-yl)quinazolin-4(3H)-one], the inhibition at 1 µM in assay [1] and in assay [2] was 80 to 100% throughout. Also, the “reduced eosinophil influx (% inhibition) in BAL fluid” value in assay [3] (setting [4]) amounted to 42%; in assay [3] (setting [5]), 56%. Moreover, the entries for the “reduced lymphocyte influx (% inhibition) in BAL fluid” value in assay [3] (setting [4]) and in assay [3] (setting [5]) were 27% and 39%, respectively.
`Cc1cccc2nc(Cn3nc(-c4ccc(O)c5c4CC(C)(C)O5)c4c(N)ncnc43)n(-n3cccc3)c(=O)c12` [Compound No. 2, 2-{[4-amino-3-(7-hydroxy-2,2-dimethyl-2,3-dihydro-1-benzofuran-4-yl)-1H-pyrazolo[3,4-d]pyrimidin-1-yl]methyl}-5-methyl-3-(1H-pyrrol-1-yl)quinazolin-4(3H)-one]: the inhibition at 1 µM in assay [1] and in assay [2] was 80 to 100% each time.
For `COc1ccc(-c2nn(Cc3nc4cccc(C)c4c(=O)n3-n3cccc3)c3ncnc(N)c23)c2c1OC(C)(C)C2` [compound 84, 2-{[4-amino-3-(7-methoxy-2,2-dimethyl-2,3-dihydro-1-benzofuran-4-yl)-1H-pyrazolo[3,4-d]pyrimidin-1-yl]methyl}-5-methyl-3-(1H-pyrrol-1-yl)quinazolin-4(3H)-one], the figures for the inhibition at 1 µM in assay [1] and in assay [2] were 80 to 100% and 60 to 80%, respectively.
Taken in the same sequence, the figures for `Cn1nccc1-c1cccc2nc(Cn3nc(-c4ccc(O)c5c4CC(C)(C)O5)c4c(N)ncnc43)n(C3(c4ccccc4)CC3)c(=O)c12` [compound 30, 2-{[4-amino-3-(7-hydroxy-2,2-dimethyl-2,3-dihydro-1-benzofuran-4-yl)-1H-pyrazolo[3,4-d]pyrimidin-1-yl]methyl}-5-(1-methyl-1H-pyrazol-5-yl)-3-(1-phenylcyclopropyl)quinazolin-4(3H)-one] were 80 to 100% and 60 to 80%.
For the compound `CC1(C)Cc2c(-c3nn(Cc4nc5cccc(-c6ccsc6)c5c(=O)n4C4(c5ccccc5)CC4)c4ncnc(N)c34)ccc(O)c2O1` [compound 25, 2-{[4-amino-3-(7-hydroxy-2,2-dimethyl-2,3-dihydro-1-benzofuran-4-yl)-1H-pyrazolo[3,4-d]pyrimidin-1-yl]methyl}-3-(1-phenylcyclopropyl)-5-(thiophen-3-yl)quinazolin-4(3H)-one], the inhibition at 1 µM in assay [1] and in assay [2] was 80 to 100% in each case.
Consider `CC1(C)Cc2c(-c3nn(Cc4nc5cccc(C#CCN6CCOCC6)c5c(=O)n4C4(c5ccsc5)CC4)c4ncnc(N)c34)ccc(O)c2O1` [compound 72, 2-{[4-amino-3-(7-hydroxy-2,2-dimethyl-2,3-dihydro-1-benzofuran-4-yl)-1H-pyrazolo[3,4-d]pyrimidin-1-yl]methyl}-5-[3-(morpholin-4-yl)prop-1-yn-1-yl]-3-[1-(thiophen-3-yl)cyclopropyl]quinazolin-4(3H)-one], for which the inhibition at 1 µM in assay [1] and in assay [2] was 80 to 100% in each case.
Take `CC1(C)Cc2c(-c3nn(Cc4nc5cccc(-c6ccoc6)c5c(=O)n4-n4cccc4)c4ncnc(N)c34)ccc(O)c2O1` [compound 23, 2-{[4-amino-3-(7-hydroxy-2,2-dimethyl-2,3-dihydro-1-benzofuran-4-yl)-1H-pyrazolo[3,4-d]pyrimidin-1-yl]methyl}-5-(furan-3-yl)-3-(1H-pyrrol-1-yl)quinazolin-4(3H)-one]: the inhibition at 1 µM in assay [1] and in assay [2] was 80 to 100% in each case.
For `Cc1cccc2nc(Cn3nc(-c4ccc(O)c5c4CC(C)(C)O5)c4c(N)ncnc43)n(-n3cccn3)c(=O)c12` [compound 7, 2-{[4-amino-3-(7-hydroxy-2,2-dimethyl-2,3-dihydro-1-benzofuran-4-yl)-1H-pyrazolo[3,4-d]pyrimidin-1-yl]methyl}-5-methyl-3-(1H-pyrazol-1-yl)quinazolin-4(3H)-one], the inhibition at 1 µM in assay [1] fell in the range of 80 to 100%; in assay [2] it was 60 to 80%.
In the same order, the values of `Cc1ccc(C)n1-n1c(Cn2nc(-c3ccc(O)c4c3CC(C)(C)O4)c3c(N)ncnc32)nc2cccc(C#CCN3CCOCC3)c2c1=O` [compound 80, 2-{[4-amino-3-(7-hydroxy-2,2-dimethyl-2,3-dihydro-1-benzofuran-4-yl)-1H-pyrazolo[3,4-d]pyrimidin-1-yl]methyl}-3-(2,5-dimethyl-1H-pyrrol-1-yl)-5-[3-(morpholin-4-yl)prop-1-yn-1-yl]quinazolin-4(3H)-one] are 80 to 100% and 60 to 80%.
In the same order, the values of `Cc1cccc2nc([C@H](C)n3nc(-c4ccc(O)c5c4CC(C)(C)O5)c4c(N)ncnc43)n(-n3c(C)ccc3C)c(=O)c12` [compound 95, 2-{(1S)-1-[4-amino-3-(7-hydroxy-2,2-dimethyl-2,3-dihydro-1-benzofuran-4-yl)-1H-pyrazolo[3,4-d]pyrimidin-1-yl]ethyl}-3-(2,5-dimethyl-1H-pyrrol-1-yl)-5-methylquinazolin-4(3H)-one] are 80 to 100% and 80 to 100%.
Turning to `Cn1cccc1-c1cccc2nc(Cn3nc(-c4ccc(O)c5c4CC(C)(C)O5)c4c(N)ncnc43)n(-n3cccc3)c(=O)c12` [compound 71, 2-{[4-amino-3-(7-hydroxy-2,2-dimethyl-2,3-dihydro-1-benzofuran-4-yl)-1H-pyrazolo[3,4-d]pyrimidin-1-yl]methyl}-5-(1-methyl-1H-pyrrol-2-yl)-3-(1H-pyrrol-1-yl)quinazolin-4(3H)-one], the inhibition at 1 µM in assay [1] and in assay [2] was 80 to 100% in each case.
On to `CC1(C)Cc2c(-c3nn(Cc4nc5cccc(-c6ccncc6)c5c(=O)n4C4(c5ccccc5)CC4)c4ncnc(N)c34)ccc(O)c2O1` [compound 21, 2-{[4-amino-3-(7-hydroxy-2,2-dimethyl-2,3-dihydro-1-benzofuran-4-yl)-1H-pyrazolo[3,4-d]pyrimidin-1-yl]methyl}-3-(1-phenylcyclopropyl)-5-(pyridin-4-yl)quinazolin-4(3H)-one], for which the inhibition at 1 µM in assay [1] was in the range of 80 to 100%; in assay [2], 60 to 80%.
